Data published in US20220008409A1, “CANCER COMBINATION THERAPY USING QUINOLINE CARBOXAMIDE DERIVATIVE” (KABUSHIKI KAISHA YAKULT HONSHA, priority 2018, published 2022).

How the values were obtained:
MDA-MB-231 cells = experiment: Combination effect of STX-1159 and mTOR inhibitor, WST-8 assay; format: cell-based, Human; settings: in combination with STX-1159, 48 hours
Method: Human breast cell line MDA-MB-231 cells or MDA-MB-468 cells (in the case of rapamycin) were inoculated on a 96-well plate to 2.5×10^3/100 μL/well or 1.0×10^3/100 μL/well, and cultured under conditions of 5% CO2 and 37° C. To the control group was added DMSO, so as to be a final concentration of 0.05%. Subsequently, the cells were cultured under conditions of 5% CO2 and 37° C. for 48 hours, and the viable cell count was then evaluated by WST-8 assay. […] The absorbance of water-soluble formazan generated by enzymatic activity of mitochondria in cells was measured at 450 nm using a microplate reader (Molecular Devices, Model: SpectraMax Plus).
Human breast cell line MDA-MB-231 cells or MDA-MB-468 cells (in the case of rapamycin) were inoculated on a 96-well plate so as to be 2.5×10^3/100 μL/well or 1.0×10^3/100 μL/well, respectively. The cells were incubated in a CO2 incubator at 37° C. After 24 hours, the supernatant was discarded, and 80 μL of a culture medium for assay was added. […] The mixture was left standing in a CO2 incubator at 37° C. for 48 hours, the supernatant was then removed, and the mixture was washed once with 100 μL of PBS(−). A WST-8 solution diluted by 10 times with the medium for assay was added at 100 μL/well, and the absorbance was measured at a wavelength of 450 nm using a plate reader. CI was calculated from the measured value.

NCI-H2228 = experiment: Combination effect by median-effect method, WST-8 assay; format: cell-based, Human; settings: in combination with STX-1159, 72 hours
From the text: (§1) NCI-H2228, NCI-H1975, SK-BR-3, Hep3B, MCF-7, Caov-3, A2058, K562 and SUP-B15 were purchased from American Type Culture Collection, SAS and HuH-7 were purchased from National Institutes of Biomedical Innovation, Health and Nutrition, and K1, FTC-133 and Ishikawa were purchased European Collection of Authenticated Cell Cultures. […] Fetal bovine serum (hereinafter, abbreviated as FBS) and MCDB 105 culture medium were purchased from Sigma Aldrich (Cat. Nos. 172012 and 117-500), and RMPI1640 culture medium, DMEM medium, Ham's F-12 medium, MEM medium and IMDM culture medium were purchased Thermo Fisher Scientific (Cat. Nos. A1049101, 11995-065, 11765-054, 11095-080 and 12440-053).
(§2) The agents were singly added one day after the cells were inoculated. […] The absorbance of water-soluble formazan generated by enzymatic activity of mitochondria in cells was measured at 450 nm using a microplate reader (Molecular Devices, Model: SpectraMax Plus). This was evaluated as the viable cell count to calculate a 50% cell growth inhibitory concentration (hereinafter, abbreviated as IC50). The reference dose of each agent was set based on IC50 (Table 3).
(§3) One day after the cells were inoculated, for single groups, STX-1159 and the agents were each added so as to be a final concentration which is ¼ times, ½ times, 1 time, 2 times or 4 times the reference dose, and for combination groups, STX-1159 and the agents were added so as to be a final concentration where STX-1159 and the agents combined were each ¼ times, ½ times, 1 time, 2 times or 4 times the reference dose. […] The fraction affected (hereinafter, abbreviated as fa) was calculated from the following expression:
(§4) fa=1−(viable cell count in agent exposure group)/(viable cell count in control group).
(§5) By a median-effect method using combination effect analyzing software CalcuSyn (HULINKS), the combination index (hereinafter, abbreviated as CI) was calculated from fa obtained when STX-1159 and the agents were exposed alone or in combination. Evaluation of the combination effect was based on grading by CI in Table 4. In calculation of CI, the average of the values from two or more experiments was employed.

[1] = Combination effect by median-effect method, summary over the cell lines of Example 1; format: cell-based; settings: in combination with STX-1159; summary of Table 5
Method: The fraction affected (hereinafter, abbreviated as fa) was calculated from the following expression: fa=1-(viable cell count in agent exposure group)/(viable cell count in control group). […] Evaluation of the combination effect was based on grading by CI in Table 4. In calculation of CI, the average of the values from two or more experiments was employed.

A2058 = experiment: Combination effect by median-effect method, WST-8 assay; format: cell-based, Human; settings: in combination with STX-1159, 72 hours
From the text: as §1, §2, §3, §4, §5

K562 = experiment: as above; format: cell-based, Human; settings: in combination with STX-1159, 48 hours
From the text: as §1
(§6) The cells were inoculated on a 96-well plate to the density shown in Table 2, and were cultured under conditions of 5% CO2 and 37° C. The agents were singly added one day after the cells were inoculated. To the control group was added DMSO, so as to be a final concentration of 0.05%. Subsequently, the cells were cultured under conditions of 5% CO2 and 37° C. for the time shown in Table 2, and the number living cells was evaluated by WST-8 assay. That is, 10 μL of a WST-8 kit solution (Kishida Chemical Co., ltd, Cat. No. 260-96162) was added to each well, and the cells were cultured under conditions of 5% CO2 and 37° C. for 1 to 2 hours. The absorbance of water-soluble formazan generated by enzymatic activity of mitochondria in cells was measured at 450 nm using a microplate reader (Molecular Devices, Model: SpectraMax Plus). This was evaluated as the viable cell count to calculate a 50% cell growth inhibitory concentration (hereinafter, abbreviated as IC50).
(§7) The cells were inoculated on a 96-well plate so as to be the density shown in Table 2, and were cultured under conditions of 5% CO2 and 37° C. One day after the cells were inoculated, for single groups, STX-1159 and the agents were each added so as to be a final concentration which is ¼ times, ½ times, 1 time, 2 times or 4 times the reference dose, and for combination groups, STX-1159 and the agents were added so as to be a final concentration where STX-1159 and the agents combined were each ¼ times, ½ times, 1 time, 2 times or 4 times the reference dose. To the control group was added DMSO, so as to be a final concentration of 0.1%. Subsequently, the cells were cultured under conditions of 5% CO2 and 37° C. for the time shown in Table 2, and the number living cells was measured by WST-8 assay. The fraction affected (hereinafter, abbreviated as fa) was calculated from the following expression:
as §4, §5

SUP-B15 = experiment: as above; format: cell-based; settings: in combination with STX-1159, 72 hours
From the text: as §1, §6
as §7, with “expression: […]” for “expression:”
By a median-effect method using combination effect analyzing software CalcuSyn (HULINKS), the combination index (hereinafter, abbreviated as CI) was calculated from fa obtained when STX-1159 and the agents were exposed alone or in combination. […]

FTC-133 = settings: in combination with STX-1159, 72 hours
From the text: as §1, §6, §7, §4, §5

K1 = experiment: Combination effect by median-effect method, WST-8 assay; format: cell-based, Human; settings: in combination with STX-1159, 72 hours
From the text: as §1, §2, §3, §4, §5

SMILES | CI (MDA-MB-231 cells) | Combination effect (MDA-MB-231 cells) | other results
CNC(=O)c1cccc(-c2ccc3c(N4CCOC[C@@H]4C)nc(N4CCOC[C@@H]4C)nc3n2)c1 [AZD2014] | 0.51 | Synergetic effect (0.3 < CI ≤ 0.7) | 
COc1ccc(-c2ccc3c(N4CCOC[C@@H]4C)nc(N4CCOC[C@@H]4C)nc3n2)cc1CO [AZD8055] | 0.36 | Synergetic effect (0.3 < CI ≤ 0.7) | 
Cc1cc(Nc2ncc(Cl)c(Nc3ccccc3S(=O)(=O)C(C)C)n2)c(OC(C)C)cc1C1CCNCC1 [Ceritinib, ceritinib] |  |  | CI (NCI-H2228): 0.34; Combination effect (NCI-H2228): Synergetic effect (0.3 < CI ≤ 0.7); combination effect by the median-effect method [1]: synergetic effect
C[C@@H](Oc1cc(-c2cnn(C3CCNCC3)c2)cnc1N)c1c(Cl)ccc(F)c1Cl [Crizotinib] |  |  | CI (NCI-H2228): 0.50; Combination effect (NCI-H2228): Synergetic effect (0.3 < CI ≤ 0.7); combination effect by the median-effect method [1]: synergetic effect
CC(C)(C)c1nc(-c2cccc(NS(=O)(=O)c3c(F)cccc3F)c2F)c(-c2ccnc(N)n2)s1 [Dabrafenib, dabrafenib] |  |  | CI (A2058): 0.73; Combination effect (A2058): Moderate synergetic effect (0.7 < CI ≤ 0.85); combination effect by the median-effect method [1]: synergetic effect
Cc1nc(Nc2ncc(C(=O)Nc3c(C)cccc3Cl)s2)cc(N2CCN(CCO)CC2)n1 [Dasatinib, dasatinib] |  |  | CI (K562): 0.78; Combination effect (K562): Moderate synergetic effect (0.7 < CI ≤ 0.85); CI (SUP-B15): 0.71; Combination effect (SUP-B15): Moderate synergetic effect (0.7 < CI ≤ 0.85)
Cc1c(CN2CCN(C(=O)[C@H](C)O)CC2)sc2c(N3CCOCC3)nc(-c3cnc(N)nc3)nc12 [GDC-0980(RG7422)] | 0.86 | Light synergetic effect (0.85 < CI ≤ 0.9) | 
O=C1NC(=O)/C(=C/c2ccc3nccc(-c4ccncc4)c3c2)S1 [GSK1059615] | 0.64 | Synergetic effect (0.3 < CI ≤ 0.7) | 
COc1ncc(-c2ccc3nccc(-c4ccnnc4)c3c2)cc1NS(=O)(=O)c1ccc(F)cc1F [GSK2126458] | 0.63 | Synergetic effect (0.3 < CI ≤ 0.7) | 
CC(C)n1nc(-c2ccc3oc(N)nc3c2)c2c(N)ncnc21 [INK 128] | 0.56 | Synergetic effect (0.3 < CI ≤ 0.7) | 
Cc1ccc(NC(=O)c2ccc(CN3CCN(C)CC3)cc2)cc1Nc1nccc(-c2cccnc2)n1 [Imatinib] |  |  | CI (K562): 0.83; Combination effect (K562): Moderate synergetic effect (0.7 < CI ≤ 0.85); CI (SUP-B15): 0.85; Combination effect (SUP-B15): Moderate synergetic effect (0.7 < CI ≤ 0.85); combination effect by the median-effect method [1]: synergetic effect
COc1ccc(-c2ccc3c(N4CCOCC4)nc(N4C[C@@H](C)O[C@@H](C)C4)nc3n2)cc1CO [KU-0063794] | 0.36 | Synergetic effect (0.3 < CI ≤ 0.7) | 
COc1cccc2cc(-c3nc([C@H]4CC[C@H](C(=O)O)CC4)n4ncnc(N)c34)[nH]c12 [OSI-027] | 0.49 | Synergetic effect (0.3 < CI ≤ 0.7) | 
COc1ccc(-c2cc3c(C)nc(N)nc3n([C@H]3CC[C@H](OCCO)CC3)c2=O)cn1 [PF-04691502] | 0.73 | Moderate synergetic effect (0.7 < CI ≤ 0.85) | 
CN(C)C1CCN(C(=O)c2ccc(NC(=O)Nc3ccc(-c4nc(N5CCOCC5)nc(N5CCOCC5)n4)cc3)cc2)CC1 [PF-05212384(PKI-587)] | 0.63 | Synergetic effect (0.3 < CI ≤ 0.7) | 
Oc1cccc(-c2nc(N3CCOCC3)c3oc4ncccc4c3n2)c1 [PI-103] | 0.60 | Synergetic effect (0.3 < CI ≤ 0.7) | 
CC(C)n1nc(-c2cc3cc(O)ccc3[nH]2)c2c(N)ncnc21 [PP242] | 0.84 | Moderate synergetic effect (0.7 < CI ≤ 0.85) | 
Nc1ncnc2c1c(-c1cnc3[nH]ccc3c1)nn2C1CCCC1 [PP-121] | 0.88 | Light synergetic effect (0.85 < CI ≤ 0.9) | 
CCC(=O)N1CCN(c2ccc(-n3c(=O)ccc4cnc5ccc(-c6cnc7ccccc7c6)cc5c43)cc2C(F)(F)F)CC1 [Torin 1] | 0.68 | Synergetic effect (0.3 < CI ≤ 0.7) | 
Nc1ccc(-c2ccc3ncc4ccc(=O)n(-c5cccc(C(F)(F)F)c5)c4c3c2)cn1 [Torin 2] | 0.66 | Synergetic effect (0.3 < CI ≤ 0.7) | 
CC(=O)Nc1cccc(-n2c(=O)n(C3CC3)c(=O)c3c(Nc4ccc(I)cc4F)n(C)c(=O)c(C)c32)c1 [Trametinib, trametinib] |  |  | CI (A2058): 0.78; Combination effect (A2058): Moderate synergetic effect (0.7 < CI ≤ 0.85)
COc1cc2c(Nc3ccc(Br)cc3F)ncnc2cc1OCC1CCN(C)CC1 [Vandetanib, vandetanib] |  |  | CI (FTC-133): 0.75; Combination effect (FTC-133): Moderate synergetic effect (0.7 < CI ≤ 0.85); CI (K1): 0.69; Combination effect (K1): Synergetic effect (0.3 < CI ≤ 0.7)
c1cncc(CN2CCC(n3ncc4c(N5CCOCC5)nc(-c5ccc6[nH]ccc6c5)nc43)CC2)c1 [WAY-600] | 0.64 | Synergetic effect (0.3 < CI ≤ 0.7) | 
COC(=O)Nc1ccc(-c2nc(N3CCOCC3)c3cnn(C4CCN(Cc5cccnc5)CC4)c3n2)cc1 [WYE-687] | 0.85 | Moderate synergetic effect (0.7 < CI ≤ 0.85) | 
CNC(=O)Nc1ccc(-c2nc(N3CC4CCC(C3)O4)c3cnn(C4CCC5(CC4)OCCO5)c3n2)cc1 [WYE-125132] | 0.40 | Synergetic effect (0.3 < CI ≤ 0.7) | 
